Results: PubChem BioAssay AID1996
Converted amounts (≈) assume the structure as drawn.

Settings: buffer; pH 7.4; 200.0 µM

| solubility kinetic | Compound |
| --- | --- |
| > 45.4 µg/mL | CCN(CC)C(C(=O)NC1CCCCC1)c1ccc(C)cc1 (stereo not given) |
| 14.9 µg/mL (≈ 45.7 µM) | COc1ccc(OC)c(NC(=O)CN2CCc3ccccc3C2)c1 |
| 0.6 µg/mL (≈ 1.82 µM) | CCc1cccc(NC(=O)C(NC(=O)C2CCCCC2)C(C)C)c1 (stereo not given) |
| 4.6 µg/mL (≈ 14.1 µM) | COc1cc2c(cc1OC)C(NC(=O)c1ccc(C)cc1)CC2=O (stereo not given) |
| 6.6 µg/mL (≈ 22.3 µM) | O=C1/C(=C/c2ccco2)SC(=S)N1CC1CCCO1 (stereo not given) |
| 16.2 µg/mL (≈ 44.8 µM) | O=C(COC(=O)C1(c2cccc(F)c2)CCCC1)NCc1cccs1 |
| > 46.6 µg/mL | CS(=O)(=O)N(CCc1ccccc1)CC(=O)N1CCCC1 |
| > 41.1 µg/mL | COCCNC(=O)/C(C#N)=C/c1ccc(C(=O)O)cc1 |
| 27.8 µg/mL (≈ 96.4 µM) | O=C(c1ccccc1)C(Nc1ccccn1)c1ccccc1 (stereo not given) |
| 10.8 µg/mL (≈ 34.7 µM) | O=C(c1ccccc1)C1CCN(c2ncccc2[N+](=O)[O-])CC1 |
| 10.6 µg/mL (≈ 33.1 µM) | CC(=O)c1cccc(NC(=S)Nc2cccc3ccccc23)c1 |
| 3.8 µg/mL (≈ 13 µM) | Cc1cccc(NC(=S)Nc2cccc3ccccc23)c1 |
| 7 µg/mL (≈ 20.8 µM) | O=c1nc(SCc2cccc(C(F)(F)F)c2)nc2ccccn12 |
| 3.3 µg/mL (≈ 9.75 µM) | CC/C(O)=C1\C(=O)CCCC1=NCCc1c(C)[nH]c2ccc(C)cc12 |
| > 54.8 µg/mL | COc1cc(OC)cc(C(=O)N[C@H](C(=O)NC2=NCCS2)C(C)C)c1 |
| 13.2 µg/mL (≈ 39.7 µM) | CC1CC(Nc2ccccc2)c2ccccc2N1C(=O)c1ccco1 (stereo not given) |
| > 51.8 µg/mL | Cc1cc(C)cc(NC(=O)CN2CCN(C(=O)C3CCCO3)CC2)c1 (stereo not given) |
| > 47.2 µg/mL | CC1CCCCN1C(=O)COC(=O)Cc1c[nH]c2ccccc12 (stereo not given) |
| 5.2 µg/mL (≈ 14.8 µM) | O=C1NC2(CCCCCC2)C(=O)N1Cc1ccc(Br)cc1 |
| > 46.9 µg/mL | COc1ccc(N)cc1S(=O)(=O)Nc1ccccc1Cl |
| > 26.3 µg/mL | CC(=O)N[C@@H](CC(=O)O)C(=O)O |
| 6.7 µg/mL (≈ 21.8 µM) | N#CCc1ccc(NC(=O)Cn2c(=O)oc3ccccc32)cc1 |

| solubility kinetic | Compound |
| --- | --- |
| 40.1 µg/mL (≈ 128 µM) | CCOC(=O)Cc1csc(NC(=O)CN2CCOCC2)n1 |
| 15.6 µg/mL (≈ 44.7 µM) | CNS(=O)(=O)c1ccc(NC(=O)Nc2ccc3c(c2)OCO3)cc1 |
| > 49.8 µg/mL | O=C1CCCN1CC(O)CS(=O)(=O)Cc1ccccc1Cl (stereo not given) |
| 4.1 µg/mL (≈ 12.7 µM) | CC(=O)c1ccc(NC(=O)Nc2ccc3c(c2)nc(C)n3C)cc1 |
| 4.4 µg/mL (≈ 14.5 µM) | CCC(CC)C(=O)c1c[nH]c(C(=O)NCc2cccs2)c1 |
| > 43.8 µg/mL | O=C(OCC(=O)N1CCCC1=O)c1cccc([N+](=O)[O-])c1 |
| 5.1 µg/mL (≈ 14.8 µM) | CCOC(=O)C1=C(C)NC(C)=C(C(=O)OCC)C1c1cccc(C)n1 |
| > 42.8 µg/mL | Cc1ccccc1NC(=O)C(C)SCc1ccccc1 (stereo not given) |
| 25.1 µg/mL (≈ 81.4 µM) | Cc1c(C(=O)N2CCCC2)oc2ccc(Br)cc12 |
| 3.6 µg/mL (≈ 12.9 µM) | O=C(CCl)Nc1sccc1C(=O)c1ccccc1 |
| 17 µg/mL (≈ 49.3 µM) | N#CC1=C(N)OC2=C(C(=O)CCC2)C1c1cc2c(cc1Cl)OCO2 (stereo not given) |
| 11.2 µg/mL (≈ 42.1 µM) | Cc1noc(C)c1C(=O)Nc1ccc2ccccc2c1 |
| > 42.7 µg/mL | S=C(NC1CC1)N1CCN(C(=S)NC2CC2)CC1 |
| 5.3 µg/mL (≈ 16.6 µM) | O=C1CCC(=O)N1OCCOc1ccc(Cl)c2ccccc12 |
| 8 µg/mL (≈ 16.8 µM) | CC(C)[C@H](NC(=O)c1cccc(S(=O)(=O)N2CCOCC2)c1)C(=O)NCc1ccc(F)cc1 |
| < 0.3 µg/mL | Clc1cc(-c2ccccc2)nc(-c2ccccc2)n1 |
| 39.2 µg/mL (≈ 138 µM) | Cc1ccc2oc(C(=O)N(C)Cc3ccon3)c(C)c2c1 |
| > 43.2 µg/mL | Cc1noc(C)c1C(=O)NCC1COc2ccccc2O1 (stereo not given) |
| 41.6 µg/mL (≈ 140 µM) | Cc1cccc(C(=O)NCCCNC(=O)c2cccnc2)c1 |
| 5.6 µg/mL (≈ 18.2 µM) | S=C(Nc1ccccc1)Nc1ccc(Br)cc1 |
| > 51.7 µg/mL | CCc1cccc(CC)c1NC(=O)CSc1nnc(C2CC2)n1C |
| 16.5 µg/mL (≈ 53.2 µM) | N#CC1=C(N)OC2=C(C(=O)CCC2)C1c1ccc2c(c1)OCO2 (stereo not given) |

| solubility kinetic | Compound |
| --- | --- |
| 4.7 µg/mL (≈ 13.8 µM) | COc1ccc(NC(=S)N2CCC(Cc3ccccc3)CC2)cc1 |
| > 43.4 µg/mL | CC(=O)c1cccc(NC(=O)C(C)OC(=O)C2CCC2)c1 (stereo not given) |
| 44.3 µg/mL (≈ 147 µM) | OC(CNC1Cc2ccccc2C1)COc1ccc(F)cc1 (stereo not given) |
| > 73.4 µg/mL | CC(C(=O)Nc1ccc(C#N)cc1)N(C)CC(=O)N(C)c1c(N)n(Cc2ccccc2)c(=O)[nH]c1=O (stereo not given) |
| > 52.7 µg/mL | CCN(C(=O)COC(=O)CCC(=O)c1cccs1)C1CCCCC1 |
| 9.4 µg/mL (≈ 25.9 µM) | COCc1cc(C)nc(SCC(=O)Oc2ccc(Cl)cc2)c1C#N |
| 9.7 µg/mL (≈ 28.4 µM) | O=C(COC(=O)CCC1CCCC1)Nc1ccccc1OC(F)F |
| 0.4 µg/mL (≈ 1.19 µM) | COc1cc(OC)cc(C(=O)NCc2ccc(-n3cccc3)cc2)c1 |
| > 51.5 µg/mL | Cc1ccc(Cl)c(NC(=O)CSc2cccc[n+]2[O-])c1Cl |
| > 57.3 µg/mL | O=C(CCN=C1NS(=O)(=O)c2ccccc21)Nc1ccc(F)cc1Cl |
| 38.4 µg/mL (≈ 127 µM) | COc1ccc(N2CCOCC2)c(NC(=O)c2ccco2)c1 |
| > 44.5 µg/mL | OCc1nc2ccccc2n1CCCCOc1ccccc1 |
| 36.7 µg/mL (≈ 150 µM) | C=CCN1C(=O)C2(OCCCO2)c2ccccc21 |
| 15.1 µg/mL (≈ 51.7 µM) | CN(C)/C=C/C(=O)c1ccc2noc(-c3ccccc3)c2c1 |
| > 47.3 µg/mL | CCOc1cc2c(cc1OC)C(NC(=O)c1ccco1)CC2=O (stereo not given) |
| > 41 µg/mL | NC(=O)CN1C(=O)NC2(CCCc3ccccc32)C1=O (stereo not given) |
| 50.7 µg/mL | FC(F)Oc1ccc(-c2c[n+]3c(n2-c2ccccc2)CCCCC3)cc1 |
| 22.9 µg/mL (≈ 86.3 µM) | OCCCc1cn(Cc2ccccc2)c2ccccc12 |
| > 32.1 µg/mL | Cc1ccc(N)cc1S(=O)(=O)N(C)C |
| 41.9 µg/mL (≈ 144 µM) | CCSC1=C(C#N)C(CC(C)C)C2=C(CCCC2=O)N1 (stereo not given) |

Second part, the compound before the results:

| Compound | solubility kinetic |
| --- | --- |
| O=C(c1nc2ccccc2[nH]1)c1ccccc1[N+](=O)[O-] | 32.3 µg/mL (≈ 121 µM) |
| CCOC(=O)c1cc(-c2csc(Nc3ccccc3Cl)n2)on1 | 0.6 µg/mL (≈ 1.72 µM) |
| CCCC(=O)OCC(=O)Nc1ccc2c(c1)OCO2 | 37.2 µg/mL (≈ 140 µM) |
| CC(=O)Oc1ccc(-c2nc3c(C)cccc3c(=O)o2)cc1 | 2.9 µg/mL (≈ 9.82 µM) |
| CCN(CC)S(=O)(=O)c1ccc(NC(=O)c2cnccn2)cc1 | 7.8 µg/mL (≈ 23.3 µM) |
| O=C(O)/C=C/c1ccc(Oc2ncccn2)cc1 | > 36.3 µg/mL |
| CCCCNC(=O)/C(=C/c1ccco1)NC(=O)c1ccco1 | 37.7 µg/mL (≈ 125 µM) |
| O=C(Nc1ncccc1O)c1ccc(Oc2ccccc2)cc1 | > 45.9 µg/mL |
| Cc1ccc(NC(=O)c2cc(C)no2)cc1 | 26.2 µg/mL (≈ 121 µM) |
| Cc1cc2c(Nc3ccccc3)ncnc2s1.Cl | 13 µg/mL |
| O=C(NC1CCCN(CCc2ccccc2)C1)c1c(F)cccc1F (stereo not given) | > 51.7 µg/mL |
| COc1ccc(S(=O)(=O)Nc2ncccc2C)c2ccccc12 | 37.6 µg/mL (≈ 114 µM) |
| CC1CC(C)CN(C(=O)Cc2c(C(=O)O)[nH]c3ccc(Cl)cc23)C1 (stereo not given) | > 52.3 µg/mL |
| CC1CCCCN1C(=O)COC(=O)/C=C/c1ccc2ccccc2n1 (stereo not given) | 25.1 µg/mL (≈ 74.2 µM) |
| CC(=O)Nc1ccc(S(=O)(=O)NCCN2CCNC2=O)cc1Cl | > 54.1 µg/mL |
| N/C(=N\OC(=O)Nc1ccccc1)c1ccno1 | 24.2 µg/mL (≈ 98.3 µM) |
| FC(F)(F)c1ccccc1CCN1CCNCC1 | 32.9 µg/mL (≈ 127 µM) |
| CN(CC(=O)NC1CCCC1)S(=O)(=O)c1cnc[nH]1 | > 43 µg/mL |
| COc1ccc(OCCNC(=O)/C=C/c2ccccc2)cc1 | 4.9 µg/mL (≈ 16.5 µM) |

| Compound | solubility kinetic |
| --- | --- |
| O=C(OCC(=O)N1CCCCC1)c1ccc(OC(F)(F)F)cc1 | 16.2 µg/mL (≈ 48.9 µM) |
| CC(CN1CCOCC1)OC(=O)c1ccccc1Cl.Cl (stereo not given) | > 48 µg/mL |
| CS(=O)(=O)c1ccc(C(=O)OCC(=O)NCc2cccs2)cc1[N+](=O)[O-] | 16.1 µg/mL (≈ 40.4 µM) |
| CC(C)COC(=O)N1C[C@H](O)C[C@H]1C(=O)Nc1ccc(Cl)cc1 | > 51.1 µg/mL |
| CN(Cc1ccccc1)C(=O)COC(=O)c1cc2ccccc2oc1=O | > 52.7 µg/mL |
| O=C(COC(=O)c1cc[n+]([O-])cc1)Nc1cccc(F)c1 | > 43.5 µg/mL |
| Cn1cc(CCCC(=O)NCc2ccccc2)c2ccccc21 | 29.2 µg/mL (≈ 95.3 µM) |
| CCC1CN(C(=O)NCc2ccccc2)c2ccccc2O1 (stereo not given) | 43.2 µg/mL (≈ 146 µM) |
| O=C(CCNC(=O)c1ccc([N+](=O)[O-])cc1)Nc1nccs1 | 12.9 µg/mL (≈ 40.3 µM) |
| Cc1ccccc1NC(=S)N1CCN(c2ccccc2)CC1 | 0.6 µg/mL (≈ 1.93 µM) |
| COC(=O)c1[nH]c2ccccc2c1CN1CCOCC1 | > 41.1 µg/mL |
| CCCCc1nc2cc(C(=O)N3CCCC3)ccc2o1 | > 40.9 µg/mL |
| O=C(CN1C(=O)NC2(CCCC2)C1=O)NCc1ccc(F)cc1 | > 47.9 µg/mL |
| COc1ccc(/C=C/C(=O)N2CCCc3ccccc32)c(OC)c1 | 6.7 µg/mL (≈ 20.7 µM) |
| Cc1cccn2c(=O)c(/C=C(\C#N)C(N)=O)c(Oc3ccccc3)nc12 | 7.9 µg/mL (≈ 22.8 µM) |
| CC(OC(=O)c1ccc(S(=O)(=O)NCc2ccco2)cc1)C(=O)Nc1ccccc1 (stereo not given) | 7.4 µg/mL (≈ 17.3 µM) |
| Cl.OC(CNCc1cccc(Br)c1)c1ccccc1 (stereo not given) | 48.1 µg/mL |
| COc1ccc(Cl)cc1NC(=O)COC(C)=O | > 38.7 µg/mL |
| O=C(/C=C/c1ccccc1)OCC(=O)N1CCCC1 | > 38.9 µg/mL |

| Compound | solubility kinetic |
| --- | --- |
| CN1CCCN(C(=O)c2cccc(Br)c2)CC1 | 35.4 µg/mL (≈ 119 µM) |
| O=C(NCCc1csc(-c2cccnc2)n1)c1c(F)cccc1F | 48.9 µg/mL (≈ 142 µM) |
| COc1ccc(Br)c(C(=O)NC(C)(C)CO)c1 | > 45.3 µg/mL |
| Cc1ccc(S(=O)(=O)Nc2nc(C)c(C(=O)NN)s2)cc1 | > 49 µg/mL |
| N#Cc1ccc(-c2csc(-c3ccno3)n2)cc1 | 1.2 µg/mL (≈ 4.74 µM) |
| COC(=O)CSc1[nH]c2ccccc2c1[N+](=O)[O-] | > 39.9 µg/mL |
| CC(CCc1ccccc1)NC(=O)COC(=O)c1ccccc1O (stereo not given) | 1.8 µg/mL (≈ 5.5 µM) |
| O=C(NCc1ccccc1)c1nc[nH]c1C(=O)NCc1ccccc1 | 1.1 µg/mL (≈ 3.29 µM) |
| CCC(=O)c1ccc(OCCn2cnc3ccccc32)cc1.Cl | 43.7 µg/mL |
| Clc1ccc(-c2csc(-c3ccno3)n2)cc1 | < 0.3 µg/mL |
| O=C(NC1CCN(CCc2c[nH]c3ccccc23)CC1)c1ccccc1 | 51.7 µg/mL (≈ 149 µM) |
| CN(C)CCCNC(=S)Nc1ccc(-c2ccccc2)cc1 | 42.8 µg/mL (≈ 137 µM) |
| CCN(Cc1ccccc1)C(=O)c1oc2ccc(C)cc2c1C | 3 µg/mL (≈ 9.76 µM) |
| CC(=O)N/C(=C\c1ccc(Cl)cc1)C(=O)O | 34.7 µg/mL (≈ 145 µM) |
| N#CC1(c2ccccc2)CCC(=O)N1c1ccccc1 (stereo not given) | > 39.3 µg/mL |
| O=C(CS(=O)(=O)c1ccccc1)N1CCCCC1 | > 40.1 µg/mL |
| O=C(NCC(=O)N1CCc2ccccc2C1)c1ccccc1Cl | > 49.3 µg/mL |
| CCOc1cc(/C=C2/C(=O)ON=C2C)ccc1O | 27.2 µg/mL (≈ 110 µM) |
